# Patent publication US9150505B2, “Prophylactic or therapeutic agent for diabetes or obesity” (AJINOMOTO CO., INC., priority 2010, dated 2015)
# Assays:
# [1] = test system: NCI-H716 cells; experiment: Promotion of CCK secretion in NCI-H716 cells; assay type: cell-based, human
# Procedure: Human appendix-derived cell line NCI-H716 (ATCC No CCL-251) was cultured in a 10% FBS-containing DMEM/HamF-12 medium at 37° C. in the presence of 5% CO2. NCI-H716 cells were seeded in a poly-D-lysine-coated 24-well plate at 600,000 cells/well and cultured for two days. Prior to sample addition, wells were washed with Hepes buffer (20 mM Hepes, 146 mM NaCl, 5 mM KCl, 1.5 mM CaCl2, 1 mM MgSO4, 5.5 mM D-glucose, 0.02% BSA, pH 7.4). 300 μl of a sample solution dissolved in the same buffer was added and incubated at 37° C. for 30 minutes. Compound 1 in Example 6 (2 mM) and Compound 2 in Example 48 (1 mM) were used as the samples. In addition, a Hepes buffer was used as a control. After collecting the supernatant, the cells were precipitated by centrifugation (5,000×g, 1 min.) to collect the supernatant thereof, which was lyophilized in Speed Vac Concentrator (SAVANT) and dissolved by addition of 60 μl of water. CCK level in the solution was determined using Enzyme immuno assay kit (EK-069-04; PHENOIX PHARMACEUTICALS).
# [2] = test system: NCI-H716 cells; experiment: Promotion of GLP-1 secretion in NCI-H716 cells; assay type: cell-based, human; settings: 10 mM, 30 minutes at 37° C., buffer assumed to be 1.0
# Procedure: Human appendix-derived cell line NCI-H716 (ATCC No CCL-251) was cultured in a 10% FBS-containing DMEM/HamF-12 medium at 37° C. in the presence of 5% CO2. NCI-H716 cells were seeded in a poly-D-lysine-coated 96-well plate at 100,000 cells/well and cultured for two days. Prior to sample addition, wells were washed with Hepes buffer (20 mM Hepes, 146 mM NaCl, 5 mM KCl, 1.5 mM CaCl2, 1 mM MgSO4, 5.5 mM D-glucose, 0.2% BSA, pH 7.4). Fifty μl of a sample solution dissolved in the same buffer was added and incubated at 37° C. for 30 minutes. The above-described compounds in Example 6 (Compound 1) (10 mM), Example 48 (Compound 2) (5 mM) and Example 14 (Compound 3) (2 mM) were used as the samples. In addition, a Hepes buffer was used as a control. After collecting the supernatant, the cells were precipitated by centrifugation (5,000×g, 1 min.) to collect the supernatant thereof. GLP-1 level in the supernatant was determined as described below according to a quantitative method for GLP-1 that uses GLP-1 receptor gene expression cells.
# According to a routine method (Lopez de Maturana R, Willshaw A, Kuntzsch A, Rudolph R, Donnelly D. J Biol Chem. 2003 Mar. 21; 278 (12):10195-200), human GLP-1 receptor gene (Nucleotide sequence 1) was integrated into pcDNA3.1 to prepare human GLP-1 receptor gene expression plasmid hGLP-1R/pcDNA3.1. Moreover, chimeric gene (Nucleotide sequence 2) of human Gα15 gene and human gustducin gene was integrated into pcDNA3.1 to prepare G protein expression plasmid Gα15-gust/pcDNA3.1. […] After 24 hours of cultivation in a CO2 incubator, changes in the fluorescence intensity were determined starting immediately after sample addition according to the Ca^2+ fluorescence indicator FLIPR Calcium 4 Assay Kit protocol (Molecular Devices) using FlexStation (Molecular Devices). Concentration dependency of human GLP-1 (7-36 Amide; Peptide Institute) with respect to the changes in the fluorescence intensity was determined and used as a standard curve for quantitating the sample. […]
structure (smiles),measurement,setting,value
"N[C@@H](CNC(=O)Nc1cc(Cl)cc(S(=O)(=O)O)c1O)C(=O)O [Example 6, (2S)-2-amino-3-{[(5-chloro-2-hydroxy-3-sulfophenyl)carbamoyl]amino}propanoic acid]",Relative secretion volumes (CCK),"[1]; 2 mM, 30 minutes at 37° C., buffer assumed to be 1.0",4.89
same,effect of promoting CCK secretion,[1]; result in words,confirmed to have an effect of promoting CCK secretion
same,Relative secretion volumes (GLP-1),[2],2.16
